# Laboratory results reported in patent publication US8097654B2, “Radiolabeled 3-[3-(benzoyl-amido)benzyloxy]aspartic acid derivative and method of producing the same” (Suntory Holdings Limited, priority 2004, dated 2012).
# Legend:
# EAAT2 = EAAT2 (Homo sapiens, UniProt P43004); experiment: Inhibition of [14C]-glutamic acid uptake by EAAT2 expressed in MDCK or COS-1 cells; type: cell-based; parameters: expressed in transfected cells; settings: glutamate transporter, subtype not given
# Description: In accordance with a known method (Shimamoto, K. et al., Mol. Pharmacol. 53, 195-201, 1998; Bioorg. Med. Chem. Lett. 10, 2407-2410, 2000), the inhibitory activity was assayed as the ability to inhibit the uptake of [^14C]-glutamic acid by human EAAT2 and EAAT3 stably expressed in MDCK (Madin-Darby canine kidney) cells or transiently expressed in COS-1 cells. The glutamate uptake activity was assayed by incubating a mixture of 1 μM of L-[^14C]-glutamic acid with a sample compound at a predetermined concentration for 12 minutes, lysing the cells and then measuring the radioactivity incorporated into the cells with a liquid scintillator. The amount of uptake was expressed in percentage by referring the amount of uptake in the absence of a test compound (i.e., the buffer alone) as 100% and referring the amount of uptake in a sodium-free solution as 0%.
# [1] = Biodistribution of radioactivity after intravenous injection in mice; settings: mean ± S.D.
# [2] = Octanol-water partition coefficient (Log P); type: physicochemical; settings: octanol/phosphate buffer, mean ± S.D.
# Description: Equal amounts of octanol and a phosphate buffer were mixed together and [^125I]I-BzA-TBOA was added thereto. After repeatedly shaking for 1 minute and allowing to stand for 1 minute three times, the mixture was allowed to stand for 20 minutes. After repeating this procedure three times, it was centrifuged (1,000×g, 10 min, 4° C.) and the radioactivity of each layer was measured. Thus, the partition coefficient was calculated (Table 1).
# [3] = 2 min after i.v. administration
# [4] = 5 min after i.v. administration
# [5] = 15 min after i.v. administration
# [6] = 30 min after i.v. administration
# Chain of EAAT2 (P43004 whole entry): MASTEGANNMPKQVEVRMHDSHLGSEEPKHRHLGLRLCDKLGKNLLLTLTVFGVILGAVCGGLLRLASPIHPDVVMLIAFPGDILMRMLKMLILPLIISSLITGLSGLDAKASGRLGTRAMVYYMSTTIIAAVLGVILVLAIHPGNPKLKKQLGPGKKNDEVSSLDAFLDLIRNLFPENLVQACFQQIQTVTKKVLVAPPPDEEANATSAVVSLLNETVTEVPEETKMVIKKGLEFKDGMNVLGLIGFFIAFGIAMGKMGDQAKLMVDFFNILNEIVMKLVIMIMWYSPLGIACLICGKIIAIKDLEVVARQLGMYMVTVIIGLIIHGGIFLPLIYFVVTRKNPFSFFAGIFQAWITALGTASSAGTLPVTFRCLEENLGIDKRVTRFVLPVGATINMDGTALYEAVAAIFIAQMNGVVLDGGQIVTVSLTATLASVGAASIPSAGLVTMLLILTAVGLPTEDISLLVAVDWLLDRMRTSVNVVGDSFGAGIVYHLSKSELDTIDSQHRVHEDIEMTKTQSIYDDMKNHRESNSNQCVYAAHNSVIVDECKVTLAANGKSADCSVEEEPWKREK
smiles,measurement,setting,value
N[C@H](C(=O)O)[C@H](OCc1cccc(NC(=O)c2ccc(F)cc2)c1)C(=O)O [F-BzA-TBOA],IC50 for glutamate transporter (in words),EAAT2,several ten nM order
"N[C@H](C(=O)O)[C@H](OCc1cccc(NC(=O)c2ccc([125I])cc2)c1)C(=O)O [[^125I]I-BzA-TBOA, (2S,3S)-3-[3-(4-[^125I]iodobenzoylamino)benzyloxy]aspartic acid]",Radioactivity in Blood,[1]; [3],2.29 ± 0.23 percentage of injection dose per gram of each tissue
same,Radioactivity in Blood,[1]; [4],1.58 ± 0.25 percentage of injection dose per gram of each tissue
same,Radioactivity in Blood,[1]; [5],0.67 ± 0.19 percentage of injection dose per gram of each tissue
same,Radioactivity in Blood,[1]; [6],0.40 ± 0.12 percentage of injection dose per gram of each tissue
same,Radioactivity in Blood,[1]; 1 hr after i.v. administration,0.16 ± 0.04 percentage of injection dose per gram of each tissue
same,Radioactivity in Blood,[1]; 2 hr after i.v. administration,0.07 ± 0.01 percentage of injection dose per gram of each tissue
same,Radioactivity in Brain,[1]; [3],0.21 ± 0.09 percentage of injection dose per gram of each tissue
same,Radioactivity in Brain,[1]; [4],0.19 ± 0.18 percentage of injection dose per gram of each tissue
same,Radioactivity in Brain,[1]; [5],0.06 ± 0.09 percentage of injection dose per gram of each tissue
same,Radioactivity in Brain,[1]; [6],0.10 ± 0.13 percentage of injection dose per gram of each tissue
same,Radioactivity in Brain,[1]; 1 hr after i.v. administration,0.01 ± 0.02 percentage of injection dose per gram of each tissue
same,Radioactivity in Brain,[1]; 2 hr after i.v. administration,0.18 ± 0.23 percentage of injection dose per gram of each tissue
same,Radioactivity in Heart,[1]; [3],0.93 ± 0.06 percentage of injection dose per gram of each tissue
same,Radioactivity in Heart,[1]; [4],0.64 ± 0.13 percentage of injection dose per gram of each tissue
same,Radioactivity in Heart,[1]; [5],0.33 ± 0.04 percentage of injection dose per gram of each tissue
same,Radioactivity in Heart,[1]; [6],0.19 ± 0.14 percentage of injection dose per gram of each tissue
same,Radioactivity in Heart,[1]; 1 hr after i.v. administration,0.04 ± 0.02 percentage of injection dose per gram of each tissue
same,Radioactivity in Heart,[1]; 2 hr after i.v. administration,0.00 ± 0.00 percentage of injection dose per gram of each tissue
same,Radioactivity in Intestine,[1]; [3],1.76 ± 0.15 percentage of injection dose per gram of each tissue
same,Radioactivity in Intestine,[1]; [4],4.51 ± 1.36 percentage of injection dose per gram of each tissue
same,Radioactivity in Intestine,[1]; [5],12.28 ± 0.72 percentage of injection dose per gram of each tissue
same,Radioactivity in Intestine,[1]; [6],15.91 ± 1.65 percentage of injection dose per gram of each tissue
same,Radioactivity in Intestine,[1]; 1 hr after i.v. administration,20.05 ± 6.29 percentage of injection dose per gram of each tissue
same,Radioactivity in Intestine,[1]; 2 hr after i.v. administration,23.69 ± 1.58 percentage of injection dose per gram of each tissue
same,Radioactivity in Kidney,[1]; [3],15.17 ± 2.34 percentage of injection dose per gram of each tissue
same,Radioactivity in Kidney,[1]; [4],16.02 ± 0.57 percentage of injection dose per gram of each tissue
same,Radioactivity in Kidney,[1]; [5],14.47 ± 2.59 percentage of injection dose per gram of each tissue
same,Radioactivity in Kidney,[1]; [6],8.29 ± 2.63 percentage of injection dose per gram of each tissue
same,Radioactivity in Kidney,[1]; 1 hr after i.v. administration,2.08 ± 0.15 percentage of injection dose per gram of each tissue
same,Radioactivity in Kidney,[1]; 2 hr after i.v. administration,1.03 ± 0.23 percentage of injection dose per gram of each tissue
same,Radioactivity in Liver,[1]; [3],28.71 ± 1.97 percentage of injection dose per gram of each tissue
same,Radioactivity in Liver,[1]; [4],22.52 ± 4.43 percentage of injection dose per gram of each tissue
same,Radioactivity in Liver,[1]; [5],11.11 ± 0.24 percentage of injection dose per gram of each tissue
same,Radioactivity in Liver,[1]; [6],4.96 ± 1.65 percentage of injection dose per gram of each tissue
same,Radioactivity in Liver,[1]; 1 hr after i.v. administration,1.95 ± 0.46 percentage of injection dose per gram of each tissue
same,Radioactivity in Liver,[1]; 2 hr after i.v. administration,1.50 ± 0.43 percentage of injection dose per gram of each tissue
same,Radioactivity in Lung,[1]; [3],3.11 ± 0.22 percentage of injection dose per gram of each tissue
same,Radioactivity in Lung,[1]; [4],2.44 ± 0.59 percentage of injection dose per gram of each tissue
same,Radioactivity in Lung,[1]; [5],1.39 ± 0.12 percentage of injection dose per gram of each tissue
same,Radioactivity in Lung,[1]; [6],0.64 ± 0.42 percentage of injection dose per gram of each tissue
same,Radioactivity in Lung,[1]; 1 hr after i.v. administration,0.26 ± 0.06 percentage of injection dose per gram of each tissue
same,Radioactivity in Lung,[1]; 2 hr after i.v. administration,0.10 ± 0.02 percentage of injection dose per gram of each tissue
same,Radioactivity in Pancreas,[1]; [3],2.10 ± 0.24 percentage of injection dose per gram of each tissue
same,Radioactivity in Pancreas,[1]; [4],2.13 ± 0.26 percentage of injection dose per gram of each tissue
same,Radioactivity in Pancreas,[1]; [5],0.94 ± 0.02 percentage of injection dose per gram of each tissue
same,Radioactivity in Pancreas,[1]; [6],0.33 ± 0.23 percentage of injection dose per gram of each tissue
same,Radioactivity in Pancreas,[1]; 1 hr after i.v. administration,0.10 ± 0.06 percentage of injection dose per gram of each tissue
same,Radioactivity in Pancreas,[1]; 2 hr after i.v. administration,0.06 ± 0.04 percentage of injection dose per gram of each tissue
same,Radioactivity in Spleen,[1]; [3],1.11 ± 0.12 percentage of injection dose per gram of each tissue
same,Radioactivity in Spleen,[1]; [4],0.65 ± 0.12 percentage of injection dose per gram of each tissue
same,Radioactivity in Spleen,[1]; [5],0.30 ± 0.04 percentage of injection dose per gram of each tissue
same,Radioactivity in Spleen,[1]; [6],0.11 ± 0.07 percentage of injection dose per gram of each tissue
same,Radioactivity in Spleen,[1]; 1 hr after i.v. administration,0.03 ± 0.04 percentage of injection dose per gram of each tissue
same,Radioactivity in Spleen,[1]; 2 hr after i.v. administration,0.03 ± 0.03 percentage of injection dose per gram of each tissue
same,Radioactivity in Stomach,[1]; [3],1.12 ± 0.20 percentage of injection dose per gram of each tissue
same,Radioactivity in Stomach,[1]; [4],0.78 ± 0.22 percentage of injection dose per gram of each tissue
same,Radioactivity in Stomach,[1]; [5],0.88 ± 0.13 percentage of injection dose per gram of each tissue
same,Radioactivity in Stomach,[1]; [6],0.58 ± 0.40 percentage of injection dose per gram of each tissue
same,Radioactivity in Stomach,[1]; 1 hr after i.v. administration,0.74 ± 0.80 percentage of injection dose per gram of each tissue
same,Radioactivity in Stomach,[1]; 2 hr after i.v. administration,0.48 ± 0.19 percentage of injection dose per gram of each tissue
same,Octanol/water partition coefficient (Log P),[2]; PH 3.0,0.641 ± 0.006
same,Octanol/water partition coefficient (Log P),[2]; PH 7.0,−0.821 ± 0.003
same,Octanol/water partition coefficient (Log P),[2]; PH 7.4,−0.849 ± 0.006
same,Octanol/water partition coefficient (Log P),[2]; PH 8.0,−0.936 ± 0.007
